{"source": "ChEMBL document CHEMBL4602676", "about": "“Discovery and Development of 3-(6-Chloropyridine-3-yloxymethyl)-2-azabicyclo[3.1.0]hexane Hydrochloride (SUVN-911): A Novel, Potent, Selective, and Orally Active Neuronal Nicotinic Acetylcholine α4β2 Receptor Antagonist for the Treatment of Depression” (J Med Chem, 2020)", "key": {"[1]": {"assay": "Tmax in Beagle dog at 3 mg/kg, po by LC-MS/MS analysis", "assay_type": "ADME, organism-based, Canis lupus familiaris", "details": "in vivo; call rule not given here"}, "[2]": {"target": "T1, Cytochrome P450 3A4 (Homo sapiens, UniProt P08684)", "T1 sequence (P08684 whole entry)": "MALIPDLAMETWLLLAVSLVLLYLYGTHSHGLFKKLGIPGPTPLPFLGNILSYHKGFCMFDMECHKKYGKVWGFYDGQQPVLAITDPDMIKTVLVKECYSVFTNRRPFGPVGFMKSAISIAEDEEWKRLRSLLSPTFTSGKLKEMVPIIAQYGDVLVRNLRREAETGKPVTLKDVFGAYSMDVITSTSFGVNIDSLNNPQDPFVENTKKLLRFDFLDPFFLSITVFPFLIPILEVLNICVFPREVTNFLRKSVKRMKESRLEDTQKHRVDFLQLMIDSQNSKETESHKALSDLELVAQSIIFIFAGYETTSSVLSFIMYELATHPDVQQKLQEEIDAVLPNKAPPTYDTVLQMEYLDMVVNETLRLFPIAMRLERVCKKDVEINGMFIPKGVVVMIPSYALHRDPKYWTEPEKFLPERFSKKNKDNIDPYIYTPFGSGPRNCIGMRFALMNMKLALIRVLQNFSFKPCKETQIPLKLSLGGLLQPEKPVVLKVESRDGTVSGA", "assay": "Inhibition of CYP3A4 in human liver microsomes using midazolam as substrate incubated for 2 min in presence of NADPH by LC-MS/MS analysis", "assay_type": "ADME"}, "[3]": {"assay": "Ratio of drug level in brain to plasma in Wistar rat at 10 ml/kg, po or 2 ml/kg, iv measured upto 24 hrs by LC-MS/MS analysis", "assay_type": "ADME, organism-based", "details": "brain and plasma, read-out: BPR"}, "[4]": {"assay": "Genotoxicity in Salmonella typhimurium TA1537 in absence of metabolic activation", "assay_type": "toxicity", "details": "salmonella enterica subsp. enterica serovar typhimurium"}, "[5]": {"target": "T2, Neuronal acetylcholine receptor; alpha4/beta2 (Homo sapiens, UniProt P17787+P43681)", "T2 sequence (P17787 whole entry)": "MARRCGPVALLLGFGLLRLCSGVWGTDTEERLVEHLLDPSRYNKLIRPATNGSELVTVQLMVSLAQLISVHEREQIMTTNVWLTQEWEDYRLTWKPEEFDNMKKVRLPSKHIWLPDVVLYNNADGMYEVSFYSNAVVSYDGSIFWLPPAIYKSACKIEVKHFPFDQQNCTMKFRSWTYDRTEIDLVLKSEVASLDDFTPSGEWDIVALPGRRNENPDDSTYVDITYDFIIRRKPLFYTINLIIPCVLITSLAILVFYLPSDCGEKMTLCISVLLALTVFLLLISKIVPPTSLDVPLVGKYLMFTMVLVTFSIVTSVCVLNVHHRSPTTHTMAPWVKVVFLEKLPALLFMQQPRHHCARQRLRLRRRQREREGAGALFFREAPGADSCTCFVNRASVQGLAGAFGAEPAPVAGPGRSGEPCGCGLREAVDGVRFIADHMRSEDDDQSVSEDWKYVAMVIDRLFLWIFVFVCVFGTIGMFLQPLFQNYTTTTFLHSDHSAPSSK", "T2 sequence (P43681 whole entry)": "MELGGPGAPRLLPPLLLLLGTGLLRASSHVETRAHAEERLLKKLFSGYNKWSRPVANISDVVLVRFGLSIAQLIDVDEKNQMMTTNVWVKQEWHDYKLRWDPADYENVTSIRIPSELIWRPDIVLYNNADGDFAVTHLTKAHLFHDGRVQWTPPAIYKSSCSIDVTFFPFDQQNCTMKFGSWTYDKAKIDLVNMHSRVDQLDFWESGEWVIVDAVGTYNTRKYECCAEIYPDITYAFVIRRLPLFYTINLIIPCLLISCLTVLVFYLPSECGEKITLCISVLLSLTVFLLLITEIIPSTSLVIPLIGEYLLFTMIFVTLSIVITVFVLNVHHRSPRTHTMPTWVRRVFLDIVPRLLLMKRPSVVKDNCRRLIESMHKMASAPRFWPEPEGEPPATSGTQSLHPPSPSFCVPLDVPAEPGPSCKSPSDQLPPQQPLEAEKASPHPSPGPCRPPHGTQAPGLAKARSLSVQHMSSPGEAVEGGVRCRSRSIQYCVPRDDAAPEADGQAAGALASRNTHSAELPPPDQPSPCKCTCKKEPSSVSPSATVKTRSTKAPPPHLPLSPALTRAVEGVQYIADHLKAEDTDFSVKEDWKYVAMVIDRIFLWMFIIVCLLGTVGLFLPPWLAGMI", "assay": "Antagonist activity at alpha4beta2 nAChR (unknown origin) expressed in HEK293 cells assessed as reduction in acetylcholine-induced currents at -80 mV holding potential by whole-cell patch clamp method", "assay_type": "cell-based"}, "[6]": {"system": "Rattus norvegicus", "assay": "Antidepressant activity in Wistar rat assessed as reduction in immobility at 1 mg/kg, po administrated for 3 days and measured for 5 mins by forced swim test relative to control", "assay_type": "functional", "set-up": "scale not given: the % may be the effect or the level left"}, "[7]": {"target": "T2, Neuronal acetylcholine receptor; alpha4/beta2", "assay": "Displacement of [3H]cytisine from human alpha4beta2 nAChR expressed in CHOK1 cell membrane by microbeta scintillation counting method", "assay_type": "cell membranes, CHO-K1"}, "[8]": {"assay": "Genotoxicity in Salmonella typhimurium TA1537 in presence of metabolic activation", "assay_type": "toxicity", "details": "salmonella enterica subsp. enterica serovar typhimurium"}, "[9]": {"assay": "Oral bioavailability in Beagle dog at 3 mg/kg by LC-MS/MS analysis", "assay_type": "ADME, organism-based, Canis lupus familiaris", "details": "in vivo"}, "[10]": {"assay": "Toxicity in telemetered Beagle dog assessed as change in blood pressure up to 25 mg/kg, po", "assay_type": "organism-based, Canis lupus familiaris", "details": "in vivo"}, "[11]": {"assay": "Genotoxicity in Salmonella typhimurium TA100 in absence of metabolic activation", "assay_type": "toxicity", "details": "salmonella enterica subsp. enterica serovar typhimurium"}, "[12]": {"assay": "Genotoxicity in Salmonella typhimurium TA98 in absence of metabolic activation", "assay_type": "toxicity", "details": "salmonella enterica subsp. enterica serovar typhimurium"}, "[13]": {"system": "Rattus norvegicus", "assay": "Antidepressant activity in Wistar rat assessed as reduction in immobility at 3 mg/kg, po administrated for 3 days and measured for 5 mins by forced swim test relative to control", "assay_type": "functional", "set-up": "scale not given: the % may be the effect or the level left"}, "[14]": {"target": "Neuronal acetylcholine receptor; alpha4/beta2 (Rattus norvegicus, UniProt P09483+P12390)", "sequence (P09483 whole entry)": "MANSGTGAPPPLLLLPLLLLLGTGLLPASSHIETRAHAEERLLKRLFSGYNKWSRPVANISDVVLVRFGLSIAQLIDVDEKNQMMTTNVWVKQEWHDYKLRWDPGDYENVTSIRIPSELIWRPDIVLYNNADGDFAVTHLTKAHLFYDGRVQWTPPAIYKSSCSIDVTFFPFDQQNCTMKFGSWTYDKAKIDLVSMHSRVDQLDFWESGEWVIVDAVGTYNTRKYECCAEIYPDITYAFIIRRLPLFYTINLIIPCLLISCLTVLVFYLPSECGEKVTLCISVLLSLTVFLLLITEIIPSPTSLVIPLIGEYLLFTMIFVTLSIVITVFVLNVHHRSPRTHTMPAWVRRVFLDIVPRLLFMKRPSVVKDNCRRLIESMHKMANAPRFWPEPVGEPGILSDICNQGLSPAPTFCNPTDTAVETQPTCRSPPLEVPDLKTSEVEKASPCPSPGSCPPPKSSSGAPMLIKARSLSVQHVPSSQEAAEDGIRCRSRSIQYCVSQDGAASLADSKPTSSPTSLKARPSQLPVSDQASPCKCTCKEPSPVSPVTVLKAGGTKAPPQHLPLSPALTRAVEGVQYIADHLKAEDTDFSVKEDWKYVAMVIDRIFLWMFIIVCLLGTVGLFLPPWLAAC", "sequence (P12390 whole entry)": "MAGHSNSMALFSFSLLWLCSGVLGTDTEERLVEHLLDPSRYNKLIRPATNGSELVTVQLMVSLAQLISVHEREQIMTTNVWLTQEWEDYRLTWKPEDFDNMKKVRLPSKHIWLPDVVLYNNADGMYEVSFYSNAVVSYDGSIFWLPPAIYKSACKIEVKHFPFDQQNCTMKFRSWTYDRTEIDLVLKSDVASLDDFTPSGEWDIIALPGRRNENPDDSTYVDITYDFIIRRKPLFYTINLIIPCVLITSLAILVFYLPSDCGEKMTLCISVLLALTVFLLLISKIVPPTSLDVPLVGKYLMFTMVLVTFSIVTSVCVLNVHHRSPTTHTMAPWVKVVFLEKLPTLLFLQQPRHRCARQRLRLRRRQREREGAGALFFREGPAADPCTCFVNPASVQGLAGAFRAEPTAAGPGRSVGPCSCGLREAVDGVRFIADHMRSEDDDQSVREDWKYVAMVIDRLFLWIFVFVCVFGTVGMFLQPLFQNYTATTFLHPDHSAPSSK", "assay": "In vivo receptor occupancy at alpha4beta2 nAChR in Wistar rat assessed as brain concentration pretreated for 15 mins followed by non radiolabelled ZW-104 tracer treatment and measured after 45 mins by LC-MS/MS analysis", "assay_type": "functional, organism-based"}, "[15]": {"target": "T3, Solute carrier family 22 member 2 (Homo sapiens, UniProt O15244)", "T3 sequence (O15244 whole entry)": "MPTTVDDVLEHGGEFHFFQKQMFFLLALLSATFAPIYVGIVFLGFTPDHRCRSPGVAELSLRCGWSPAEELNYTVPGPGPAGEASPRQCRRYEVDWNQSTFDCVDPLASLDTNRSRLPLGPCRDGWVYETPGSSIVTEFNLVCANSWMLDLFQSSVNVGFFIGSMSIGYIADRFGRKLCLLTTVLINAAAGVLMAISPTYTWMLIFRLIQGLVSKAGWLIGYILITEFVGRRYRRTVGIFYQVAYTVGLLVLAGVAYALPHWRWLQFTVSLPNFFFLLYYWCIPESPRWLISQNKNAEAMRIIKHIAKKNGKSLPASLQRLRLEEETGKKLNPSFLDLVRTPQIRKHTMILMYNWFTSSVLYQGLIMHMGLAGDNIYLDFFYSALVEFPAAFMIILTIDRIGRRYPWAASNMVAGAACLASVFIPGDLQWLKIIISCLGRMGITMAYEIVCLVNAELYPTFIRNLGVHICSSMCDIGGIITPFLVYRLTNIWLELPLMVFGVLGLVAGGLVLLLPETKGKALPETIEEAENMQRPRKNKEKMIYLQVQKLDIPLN", "assay": "Inhibition of OCT2 (unknown origin)"}, "[16]": {"assay": "Volume of distribution in Beagle dog at 1 mg/kg, iv by LC-MS/MS analysis", "assay_type": "ADME, organism-based, Canis lupus familiaris", "details": "in vivo"}, "[17]": {"assay": "Genotoxicity in Salmonella typhimurium TA1535 in presence of metabolic activation", "assay_type": "toxicity", "details": "salmonella enterica subsp. enterica serovar typhimurium"}, "[18]": {"system": "Rattus norvegicus", "assay": "Antidepressant activity in Wistar rat assessed as immobility time at 10.0 mg/kg, po measured for 5 mins by forced swim test (reference value: 241.9 to 281.6 sec)", "assay_type": "functional"}, "[19]": {"target": "T1, Cytochrome P450 3A4", "assay": "Induction of CYP3A4 (unknown origin)", "assay_type": "ADME"}, "[20]": {"assay": "Genotoxicity in Salmonella typhimurium TA1535 in absence of metabolic activation", "assay_type": "toxicity", "details": "salmonella enterica subsp. enterica serovar typhimurium"}, "[21]": {"target": "Neuronal acetylcholine receptor; alpha4/beta2 (Rattus norvegicus) (UniProt P09483+P12390)", "assay": "In vivo receptor occupancy at alpha4beta2 nAChR in Wistar rat pretreated for 15 mins followed by non radiolabelled ZW-104 tracer treatment and measured after 45 mins by LC-MS/MS analysis", "assay_type": "functional, organism-based"}, "[22]": {"assay": "Clearance in Beagle dog at 1 mg/kg, iv by LC-MS/MS analysis", "assay_type": "ADME, organism-based, Canis lupus familiaris", "details": "in vivo"}, "[23]": {"assay": "Protein binding in dog plasma assessed as unbound fraction at […] incubated for 6 hrs by LC-MS/MS analysis", "assay_type": "ADME, cell-free, Canis lupus familiaris"}, "[24]": {"assay": "Half life in Wistar rat at 10 ml/kg, po or 2 ml/kg, iv measured upto 24 hrs by LC-MS/MS analysis", "assay_type": "ADME, organism-based", "details": "in vivo"}, "[25]": {"target": "T4, Solute carrier family 22 member 1 (Homo sapiens, UniProt O15245)", "T4 sequence (O15245 whole entry)": "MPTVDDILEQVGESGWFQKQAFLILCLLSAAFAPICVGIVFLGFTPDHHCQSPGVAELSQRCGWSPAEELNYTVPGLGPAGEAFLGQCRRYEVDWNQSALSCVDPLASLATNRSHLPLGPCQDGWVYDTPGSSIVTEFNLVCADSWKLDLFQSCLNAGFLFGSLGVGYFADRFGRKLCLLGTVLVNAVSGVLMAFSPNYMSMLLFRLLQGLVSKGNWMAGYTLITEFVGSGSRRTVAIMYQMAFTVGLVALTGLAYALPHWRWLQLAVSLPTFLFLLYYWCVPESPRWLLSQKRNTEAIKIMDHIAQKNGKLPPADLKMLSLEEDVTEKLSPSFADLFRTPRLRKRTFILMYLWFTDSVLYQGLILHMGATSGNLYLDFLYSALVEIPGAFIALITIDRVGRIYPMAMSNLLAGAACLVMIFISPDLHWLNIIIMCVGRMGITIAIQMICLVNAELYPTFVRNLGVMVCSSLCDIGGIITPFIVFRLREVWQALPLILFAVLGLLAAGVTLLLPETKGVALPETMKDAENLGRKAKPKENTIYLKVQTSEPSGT", "assay": "Inhibition of OCT1 (unknown origin)"}, "[26]": {"assay": "Toxicity in telemetered Beagle dog assessed as change in heart rate up to 25 mg/kg, po", "assay_type": "organism-based, Canis lupus familiaris", "details": "in vivo"}, "[27]": {"assay": "Oral bioavailability in Wistar rat at 10 ml/kg measured upto 24 hrs by LC-MS/MS analysis", "assay_type": "ADME, organism-based", "details": "in vivo"}}, "note": "pEC50, pIC50, pKi: −log10 of the molar value.", "data": [{"smiles": "Cl.Clc1ccc(OC[C@@H]2C[C@H]3C[C@H]3N2)cn1", "values": [{"measurement": "Tmax", "setting": "[1]", "value": 0.3, "unit": "h"}, {"measurement": "pIC50", "setting": "[2]", "value": "< 4.35"}, {"measurement": "Kp at 24 h", "setting": "[3]", "value": 2.34}, {"measurement": "Activity", "setting": "[4]", "value": "Non-Toxic"}, {"measurement": "pIC50", "setting": "[5]", "value": 5.14}, {"measurement": "Activity", "setting": "[6]", "value": 29.35, "unit": "%"}, {"measurement": "pKi", "setting": "[7]", "value": 8.82}, {"measurement": "Activity", "setting": "[8]", "value": "Non-Toxic"}, {"measurement": "bioavailability", "setting": "[9]", "value": 83, "unit": "%"}, {"measurement": "Activity", "setting": "[10]", "value": "Non-Toxic"}, {"measurement": "Activity", "setting": "[11]", "value": "Non-Toxic"}, {"measurement": "Activity", "setting": "[12]", "value": "Non-Toxic"}, {"measurement": "Activity", "setting": "[13]", "value": 35.81, "unit": "%"}, {"measurement": "pEC50", "setting": "[14]", "value": 3.48}, {"measurement": "inhibition (INH)", "setting": "[15]", "value": "Not Active"}, {"measurement": "Vd", "setting": "[16]", "value": 1.3, "unit": "L/kg"}, {"measurement": "Activity", "setting": "[17]", "value": "Non-Toxic"}, {"measurement": "Time", "setting": "[18]", "value": 81.5, "unit": "s"}, {"measurement": "Activity", "setting": "[19]", "value": "Not Active"}, {"measurement": "Activity", "setting": "[20]", "value": "Non-Toxic"}, {"measurement": "Activity", "setting": "[21]", "value": "Dose-dependent effect"}, {"measurement": "ED50", "setting": "[21]", "value": 1.61, "unit": "µM"}, {"measurement": "clearance", "setting": "[22]", "value": 10, "unit": "mL/min/kg"}, {"measurement": "fraction unbound at 6 h", "setting": "[23]", "value": 0.31}, {"measurement": "half-life", "setting": "[24]", "value": 3.34, "unit": "h"}, {"measurement": "inhibition (INH)", "setting": "[25]", "value": "Not Active"}, {"measurement": "Activity", "setting": "[26]", "value": "Non-Toxic"}, {"measurement": "bioavailability", "setting": "[27]", "value": 66, "unit": "%"}]}]}
